Source: ChEMBL document CHEMBL4417622, “New steroid inhibitors of pgp for use for inhibiting multidrug resistance” (2012)
The source made the active and inactive calls. No cut-off for these calls is given here.

Experiments:
[1] = molecular target: T1, Nuclear receptor subfamily 1 group I member 2 (Homo sapiens, UniProt O75469); experiment: Activation of human PXR at 10 nM to 10 uM; assay type: ADME; conditions: 0.01 µM
T1 sequence (O75469 whole entry): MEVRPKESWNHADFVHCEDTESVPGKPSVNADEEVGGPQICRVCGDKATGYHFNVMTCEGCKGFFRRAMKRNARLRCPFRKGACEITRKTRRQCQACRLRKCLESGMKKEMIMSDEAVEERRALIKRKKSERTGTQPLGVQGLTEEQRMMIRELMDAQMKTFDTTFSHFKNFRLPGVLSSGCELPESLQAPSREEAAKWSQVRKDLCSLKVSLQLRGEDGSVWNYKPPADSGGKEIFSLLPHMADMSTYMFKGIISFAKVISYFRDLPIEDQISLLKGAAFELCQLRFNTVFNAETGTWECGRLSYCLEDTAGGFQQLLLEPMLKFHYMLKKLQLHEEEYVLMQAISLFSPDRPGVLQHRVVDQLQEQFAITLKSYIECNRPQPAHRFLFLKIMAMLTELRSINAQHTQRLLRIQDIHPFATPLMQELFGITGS

Progesterone receptor = molecular target: T2, Progesterone receptor (Homo sapiens, UniProt P06401); experiment: Displacement of [3H]ORG2058 from progesterone receptor in human breast carcinoma cytosol at 0.5 to 3.5 uM by liquid scintillation counting based DCC competitive binding assay
T2 sequence (P06401 whole entry): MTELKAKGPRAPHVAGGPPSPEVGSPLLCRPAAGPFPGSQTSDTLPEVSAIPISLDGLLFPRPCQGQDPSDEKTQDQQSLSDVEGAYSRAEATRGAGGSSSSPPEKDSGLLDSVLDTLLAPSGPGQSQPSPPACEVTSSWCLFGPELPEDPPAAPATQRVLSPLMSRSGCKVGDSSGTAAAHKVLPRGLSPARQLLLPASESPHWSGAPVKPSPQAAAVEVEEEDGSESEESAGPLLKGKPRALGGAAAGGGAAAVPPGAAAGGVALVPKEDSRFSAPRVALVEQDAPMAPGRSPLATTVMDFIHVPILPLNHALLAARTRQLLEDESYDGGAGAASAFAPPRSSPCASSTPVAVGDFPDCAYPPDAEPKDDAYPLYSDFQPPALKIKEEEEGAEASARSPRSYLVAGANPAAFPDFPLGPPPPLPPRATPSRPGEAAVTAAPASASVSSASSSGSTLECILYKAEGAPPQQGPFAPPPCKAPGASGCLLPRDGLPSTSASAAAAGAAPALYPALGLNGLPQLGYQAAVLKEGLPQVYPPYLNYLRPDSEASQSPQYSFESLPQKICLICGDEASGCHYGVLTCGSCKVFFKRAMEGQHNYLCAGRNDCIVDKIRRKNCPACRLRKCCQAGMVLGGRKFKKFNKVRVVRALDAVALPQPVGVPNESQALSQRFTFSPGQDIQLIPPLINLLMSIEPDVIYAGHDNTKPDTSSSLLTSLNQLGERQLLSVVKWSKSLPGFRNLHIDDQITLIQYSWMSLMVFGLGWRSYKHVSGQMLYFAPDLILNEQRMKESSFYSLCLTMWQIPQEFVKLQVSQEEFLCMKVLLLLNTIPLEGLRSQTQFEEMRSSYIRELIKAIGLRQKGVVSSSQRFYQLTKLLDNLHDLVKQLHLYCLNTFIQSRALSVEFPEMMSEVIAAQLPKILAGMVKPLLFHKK

P-gp (ABCB1) = P-gp (ABCB1) (Homo sapiens, UniProt P08183); experiment: Inhibition of P-gp in human K562/R7 cells assessed as daunorubicin accumulation at 10 uM incubated fro 1 hr by flow cytometry relative to cyclosporine A; assay type: cell-based; conditions: probe daunorubicin, read-out: Activity
Chain of P-gp (ABCB1) (P08183 whole entry): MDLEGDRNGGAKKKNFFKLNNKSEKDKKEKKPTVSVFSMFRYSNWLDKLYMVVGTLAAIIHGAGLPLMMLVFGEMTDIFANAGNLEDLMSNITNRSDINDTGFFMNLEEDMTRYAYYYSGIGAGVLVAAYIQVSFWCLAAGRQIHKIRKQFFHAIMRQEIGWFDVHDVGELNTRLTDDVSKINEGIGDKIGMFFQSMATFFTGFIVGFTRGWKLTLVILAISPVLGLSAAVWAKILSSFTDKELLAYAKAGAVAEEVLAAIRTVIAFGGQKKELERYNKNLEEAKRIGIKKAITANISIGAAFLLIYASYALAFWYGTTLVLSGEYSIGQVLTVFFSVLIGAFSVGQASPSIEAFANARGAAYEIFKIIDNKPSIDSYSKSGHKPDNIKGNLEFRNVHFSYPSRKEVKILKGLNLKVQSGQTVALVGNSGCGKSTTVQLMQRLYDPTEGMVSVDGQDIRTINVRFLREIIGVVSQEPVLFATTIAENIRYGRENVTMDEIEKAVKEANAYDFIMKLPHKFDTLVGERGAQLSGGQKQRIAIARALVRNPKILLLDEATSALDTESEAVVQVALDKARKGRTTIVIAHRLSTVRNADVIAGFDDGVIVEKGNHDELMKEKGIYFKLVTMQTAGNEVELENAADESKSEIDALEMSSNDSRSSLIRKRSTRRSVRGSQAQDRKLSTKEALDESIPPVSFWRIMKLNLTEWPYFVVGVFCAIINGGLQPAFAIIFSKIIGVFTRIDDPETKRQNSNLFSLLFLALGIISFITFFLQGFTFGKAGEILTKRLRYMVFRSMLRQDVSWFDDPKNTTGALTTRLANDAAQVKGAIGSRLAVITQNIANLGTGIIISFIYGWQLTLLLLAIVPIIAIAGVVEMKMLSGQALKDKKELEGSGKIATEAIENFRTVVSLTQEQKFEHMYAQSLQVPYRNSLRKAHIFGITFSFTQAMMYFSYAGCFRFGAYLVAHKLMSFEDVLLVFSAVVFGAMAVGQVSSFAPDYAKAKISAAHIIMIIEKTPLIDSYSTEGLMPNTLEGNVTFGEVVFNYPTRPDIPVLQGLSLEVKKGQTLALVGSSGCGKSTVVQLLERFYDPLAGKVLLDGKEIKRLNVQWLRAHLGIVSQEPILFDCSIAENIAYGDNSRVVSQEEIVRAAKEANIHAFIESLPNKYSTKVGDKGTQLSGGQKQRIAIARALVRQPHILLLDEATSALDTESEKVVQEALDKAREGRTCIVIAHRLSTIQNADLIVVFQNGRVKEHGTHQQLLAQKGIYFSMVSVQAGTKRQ

K562/R7 [2] = experiment: Potentiation of doxorubicin-induced antitumor activity against human K562/R7 cells xenografted in SCID mouse assessed as reduction in tumor volume at 10 mg/kg co-treated with 1.5 mg/kg doxorubicin after 40 days post dose; assay type: functional, organism-based
K562/R7 [3] = experiment: Potentiation of doxorubicin-induced antitumor activity against human K562/R7 cells xenografted in SCID mouse assessed as reduction in tumor volume at 10 mg/kg co-treated with 1.5 mg/kg doxorubicin measured up to 80 days; assay type: functional, organism-based
NCI-H295R [4] = experiment: Potentiation of doxorubicin-induced antitumor activity against human NCI-H295R cells xenografted in SCID mouse assessed as reduction in tumor volume at 10 mg/kg co-treated with 1.5 mg/kg doxorubicin measured up to 80 days; assay type: functional, organism-based
NCI-H295R [5] = experiment: Potentiation of doxorubicin-induced antitumor activity against human NCI-H295R cells xenografted in SCID mouse assessed as reduction in tumor volume at 10 mg/kg co-treated with 1.5 mg/kg doxorubicin after 40 days post dose; assay type: functional, organism-based

With `CC(=O)[C@@]1(O[C@H]2CCCCO2)CC[C@H]2[C@@H]3CC[C@@H]4CC(=O)CC[C@]4(C)[C@H]3[C@H](O[C@H]3CCCCO3)C[C@@]21C` the Activity [1] was “Not Active” and the Activity (Progesterone receptor) was “Not Active”.
With `CC(=O)[C@H]1CC[C@H]2[C@H]3[C@H]([C@H](OC(=O)c4ccccc4)C[C@]12C)[C@@]1(C)CCC(=O)C[C@H]1C[C@@H]3OC(=O)c1ccccc1` the Activity (Progesterone receptor) was “Not Active”.
For `CC(=O)[C@@]1(O[C@@H]2CCCCO2)CC[C@H]2[C@@H]3CC[C@@H]4CC(=O)CC[C@]4(C)[C@H]3[C@H](O[C@H]3CCCCO3)C[C@@]21C`, the Activity [1] was “Not Active”.
In the case of `CC(=O)[C@H]1CC[C@H]2[C@H]3[C@H]([C@H](O[C@@H]4CCCCO4)C[C@]12C)[C@@]1(C)CCC(=O)C[C@H]1C[C@@H]3OC(=O)c1ccccc1`, the Activity [1] is reported as “Not Active”.
With `CC(=O)[C@H]1CC[C@H]2[C@H]3[C@H]([C@H](O[C@@H]4CCCCO4)C[C@]12C)[C@@]1(C)CCC(=O)C[C@H]1C[C@H]3OC(=O)c1ccccc1` the Activity [1] was “Not Active”, the Activity (Progesterone receptor) was “Not Active” and the inhibition at 1 h, 10 µM (P-gp (ABCB1)) was 119%. The Activity (K562/R7 [2]) was “Active”, the Activity (K562/R7 [3]) was “Active” and the Activity (NCI-H295R [4]) was “Active”. For the same molecule, the Activity (NCI-H295R [5]) was “Active”.
`COC(=O)CC[C@@H](C)[C@H]1CC[C@H]2[C@@H]3[C@H](OC(=O)c4ccccc4)CC4CC(=O)CC[C@]4(C)[C@H]3C[C@H](O[C@@H]3CCCCO3)[C@]12C` (single isomer, unassigned) gave an inhibition at 1 h, 10 µM (P-gp (ABCB1)) of 79.8%.
With `CC(=O)[C@@]1(O[C@@H]2CCCCO2)CC[C@H]2[C@@H]3CC[C@@H]4CC(=O)CC[C@]4(C)[C@H]3[C@H](O[C@@H]3CCCCO3)C[C@@]21C` the Activity [1] was “Not Active”.
For `CC(=O)[C@H]1CC[C@H]2[C@H]3[C@H]([C@H](OC(=O)c4ccccc4)C[C@]12C)[C@@]1(C)CCC(=O)C[C@H]1C[C@H]3OC(=O)c1ccccc1`, the Activity [1] was “Not Active” and the Activity (Progesterone receptor) was “Not Active”.
